# Experimental data as given in patent publication US9814732B2, “Ulipristal acetate for prevention and treatment of breast tumors” (LABORATOIRE HRA-PHARMA, priority 2012, dated 2017).
# Assays:
# [1] = system: MCF-7 cells; assay: Apoptosis, sub-G1 quantification by flow cytometry in MCF-7 cells; assay type: cell-based, human; details: 48 h
# Protocol: After seeding, cells were cultured for 24 h in serum and phenol red free medium. Then treatments were carried out in a phenol red free medium containing 5% dextran-charcoal stripped serum. Cells were treated with P or DEX (100 nM), alone or in combination with UPA, RU (1 nM to 1 μM) or CDB-3877 (100 nM). Control cells were treated with ethanol, at […] 1:1000 final ethanol concentration alone as vehicle or E2 (10 nM).
# After 96 h or 48 h of hormonal treatment, respectively, for HBE or MCF-7 and T-47D cells, cells were washed in PBS, matrix dissociated with accutase enzyme (PAA laboratory, Les Mureaux, France), and centrifuged 5 minutes at 1350 rpm. Cells were fixed and frozen at −20° C. in 70% ethanol. Before analysis, cells were washed in PBS and stained with 10 μg/ml propidium iodide in PBS (containing 0.835 U/ml RNase A) (Sigma, St Quentin Fallavier, France). For each sample at least 10 000 cells were counted in a BD LSR II flow cytometer (BD Biosciences, Le Pont de Claix, France). After gating out doublets and debris, cycle distribution was analyzed using the ModFit LT software (Verity Software House, USA).
# [2] = biological target: T1, GR (Homo sapiens, UniProt P04150); assay: GRE-Luc reporter gene transactivation in MCF-7 cells; assay type: cell-based; parameters: endogenous in cells; host or cells: MCF-7; details: MCF7, DEX 100 nM, test compound 100 nM, read-out: inhibition of DEX-induced luciferase transactivation (GRE-Luc)
# T1 sequence (P04150 1-777): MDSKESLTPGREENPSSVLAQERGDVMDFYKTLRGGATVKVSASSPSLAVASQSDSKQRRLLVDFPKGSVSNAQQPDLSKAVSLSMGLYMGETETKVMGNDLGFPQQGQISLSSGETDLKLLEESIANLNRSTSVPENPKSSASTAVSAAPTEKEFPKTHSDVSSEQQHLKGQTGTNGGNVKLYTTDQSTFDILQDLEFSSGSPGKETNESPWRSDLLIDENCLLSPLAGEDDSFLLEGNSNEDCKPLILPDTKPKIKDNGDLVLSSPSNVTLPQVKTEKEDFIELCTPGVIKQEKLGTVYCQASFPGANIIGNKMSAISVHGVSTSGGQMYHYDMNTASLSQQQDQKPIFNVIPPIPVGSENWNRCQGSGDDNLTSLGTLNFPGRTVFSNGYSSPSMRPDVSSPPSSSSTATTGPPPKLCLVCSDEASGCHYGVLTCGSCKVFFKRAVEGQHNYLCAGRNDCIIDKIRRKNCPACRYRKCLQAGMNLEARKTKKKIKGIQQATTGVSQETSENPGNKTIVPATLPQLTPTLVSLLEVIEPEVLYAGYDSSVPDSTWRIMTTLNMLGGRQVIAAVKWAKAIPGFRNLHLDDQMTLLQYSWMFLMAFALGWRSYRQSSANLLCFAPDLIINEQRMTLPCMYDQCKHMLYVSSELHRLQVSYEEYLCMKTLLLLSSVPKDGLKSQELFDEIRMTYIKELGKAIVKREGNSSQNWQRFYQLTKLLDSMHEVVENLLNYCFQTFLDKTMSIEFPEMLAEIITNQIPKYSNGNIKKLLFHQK
# [3] = biological target: T2, PR (Homo sapiens, UniProt P06401); assay: MMTV-Luc reporter gene transactivation in T-47D cells; assay type: cell-based; parameters: constitutively expressed high amounts of PR (progesterone receptor); endogenous in cells; host or cells: T-47D
# T2 sequence (P06401 1-933): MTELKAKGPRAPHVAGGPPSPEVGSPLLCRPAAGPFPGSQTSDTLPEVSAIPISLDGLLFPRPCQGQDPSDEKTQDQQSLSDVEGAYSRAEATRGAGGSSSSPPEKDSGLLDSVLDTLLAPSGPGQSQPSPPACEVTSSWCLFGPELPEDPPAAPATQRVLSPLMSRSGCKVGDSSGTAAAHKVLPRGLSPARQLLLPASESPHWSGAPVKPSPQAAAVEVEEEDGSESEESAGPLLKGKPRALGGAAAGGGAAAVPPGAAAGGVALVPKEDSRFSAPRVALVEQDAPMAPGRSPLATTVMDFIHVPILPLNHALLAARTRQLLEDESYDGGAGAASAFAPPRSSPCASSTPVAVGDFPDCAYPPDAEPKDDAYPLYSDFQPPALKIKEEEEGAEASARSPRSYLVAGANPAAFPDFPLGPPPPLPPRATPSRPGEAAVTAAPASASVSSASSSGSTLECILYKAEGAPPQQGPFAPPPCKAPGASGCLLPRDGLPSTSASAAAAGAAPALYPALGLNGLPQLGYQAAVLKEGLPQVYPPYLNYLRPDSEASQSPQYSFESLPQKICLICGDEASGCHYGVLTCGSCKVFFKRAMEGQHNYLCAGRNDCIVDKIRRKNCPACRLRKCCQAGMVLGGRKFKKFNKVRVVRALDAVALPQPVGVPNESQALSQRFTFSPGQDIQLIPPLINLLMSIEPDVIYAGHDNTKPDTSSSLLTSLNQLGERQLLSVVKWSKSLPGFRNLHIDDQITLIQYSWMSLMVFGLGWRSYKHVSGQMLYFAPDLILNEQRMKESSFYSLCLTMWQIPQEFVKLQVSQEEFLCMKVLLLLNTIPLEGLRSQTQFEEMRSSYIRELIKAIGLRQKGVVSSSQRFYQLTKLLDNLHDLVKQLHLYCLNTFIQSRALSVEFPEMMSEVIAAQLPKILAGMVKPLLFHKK
# Protocol: T-47D and MCF-7 cell lines were respectively maintained in RPMI 1640 and in DMEM medium supplemented with 10% fetal calf serum (PAA Laboratory, Les Mureaux, France). […] Normal human breast epithelial cell (HBE) primary cultures were obtained from 20 women (aged 17-50 years). […] HBE cells were maintained in HAM F10 medium (PAA Laboratory, Les Mureaux, France) containing hydrocortisone (5 ng/ml), Triiodo-L-thyronine (6.5 ng/ml), choleratoxin (10 ng/ml), transferrin (5 mg/ml), insulin (0.016 U/ml), epidermal growth factor (10 ng/ml) (Sigma, St Quentin Fallavier, France) and 5% human serum (Etablissement Français du Sang).
# After seeding, cells were cultured for 24 h in serum and phenol red free medium. Then treatments were carried out in a phenol red free medium containing 5% dextran-charcoal stripped serum. […] Control cells were treated with ethanol, at 10 1:1000 final ethanol concentration alone as vehicle or E2 (10 nM).
# Cells were transfected with reporter gene plasmids containing glucocorticoid and progesterone responsive elements (GRE/PRE): 1) the MMTV-Luc is a Mouse Mammary Tumor Virus Long Terminal Repeat promoter containing one GRE/PRE palindrome and three GRE/PRE hemi-palindromes upstream to firefly luciferase gene in pFC31 vector, 2) the GRELuc contains six copies of GRE/PRE palindrome upstream to firefly luciferase gene in pBL vector. When indicated, HBE cells were transfected with human PR isoforms hPR-A and hPR-B expression plasmids constructed in POP3 vectors. Rous Sarcoma Virus promoter upstream to beta galactosidase gene (pRSV-β-Gal) was transfected in each experiment as control. Transfections were performed according to the manufacturer instructions using Lipofectamine or Lipofectamine LTX Reagents (Invitrogen, Cergy-Pontoise, France) for breast cancer cell lines or HBE cells, respectively. After 24 h of transfection, breast cancer and HBE cells were treated with hormones for 24 h or 48 h, respectively. At the end of the experiment, cells were lysed and luciferase activity was determined using the Luciferase Assay System (Promega, Charbonnières-les-bains, France). Beta galactosidase activity was assessed using the Galacto Star kit (Applied Biosystems, Courtaboeuf, France) to normalize luciferase activity data.
structure (smiles),measurement,setting,value
"CC(=O)O[C@]1(C(C)=O)CCC2C3CCC4=CC(=O)CCC4=C3[C@@H](c3ccc(N(C)C)cc3)C[C@@]21C (stereo partly drawn) [UPA, 17[…]-acetoxy-11[…]-[4-N,N-dimethylamino-phenyl)-19-norpregna-4,9-diene-3,20-dione]","cell apoptosis (sub-G1 percentage), compound alone",[1]; 100 nM,had no apoptotic or survival properties by itself
same,effect of UPA on DEX-mediated apoptosis,[1]; DEX 100 nM + UPA 100 nM,totally inhibited by UPA
same,inhibition at 0.1 µM,[2],59 ± 3.4%
same,PR antagonist response on MMTV-Luc transactivation at 1 nM,"[3]; P 100 nM, antagonist 1 nM",Partial antagonist responses
same,PR antagonist action on MMTV-Luc transactivation,"[3]; P 100 nM, antagonist 1000 to 10 nM",potent PR antagonist actions from 1000 to 10 nM
same,progestational agonist properties on reporter gene transcription,[3]; compound alone,did not exhibit progestational agonist properties
